“Also recorded” adds a separate entry of the source.
Target: Tat protein (ubiquitin chains) (Human immunodeficiency virus type 1 (HXB3 ISOLATE), UniProt P69698)
Experiment: Ubiquitin linkage assay: HA-Ubiquitin lysine mutants and Flag-Tat in HEK293T, western blot
Type: cell-based, HIV
Settings: HA-Ubiquitin mutants, TT-44881 60 μM, 24 hours
Text: FIG. 10. TT-44881's anti-HIV activity engages heterogenous lysine linked Ubiquitin chains (K48 and K33 chains). A. Example of covalent binding of the Ubiquitin chains to the lysine residues of the Tat protein. B. Schematic of the different Ubiquitin chains that can be linked to the Tat protein to induce its degradation or stabilization. C. […] HEK293T cells overexpressing HA-Ubiquitin proteins (which have each lysine singly mutated to arginine or only one lysine present) and Flag-Tat protein were treated with TT-44881. Western blot assays were performed 24 hours later. TT-44881: 60 μM. Shown is representative of n=3.
Which Ubiquitin linkage engaged in the TT-44881 degradation activity was also investigated. HEK293T cells were transfected with Tat protein and HA-Ubiquitin which has each lysine singly mutated to arginine or only one lysine present.

Tat protein (ubiquitin chains), sequence (P69698 whole entry): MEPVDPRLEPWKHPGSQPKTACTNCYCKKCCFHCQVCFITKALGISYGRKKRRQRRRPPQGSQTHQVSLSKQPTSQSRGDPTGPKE

O=C(CCCCN1CCCC1=O)c1nn(-c2ccccc2)c2c1CCC2 [TT-44881]
ubiquitin chain linkages engaged in Tat degradation: K48-linked ubiquitin chains are involved in TT-44881 activity, K33 linked ubiquitin chains also seemed to be engaged; also recorded: blocks TT-44881 induced Tat degradation
